Source: a melting point compilation (Tetko et al.; mined from patent text by program, amines drawn as free bases though some values may be those of a salt)

Row | melting point [°C] | SMILES
1 | 269 to 271 | CCOc1ccc(C(=O)NCc2ccc3c(c2)CN(C2CCC(=O)NC2=O)C3=O)cc1 (centres undefined)
2 | 51 to 54 | Cc1ncc(I)nc1C
3 | 206 to 207 | N#CCCNC(=O)c1n[nH]cc1NC(=O)c1ccc2c(c1)CCO2
4 | 121 to 122 | CCOC(=O)[C@@H](O)[C@@H]1OC(=O)c2ccc(OC)cc21
5 | 156 to 157 | CC(=O)N1CCN=C1Nc1cc(C)nn1-c1ccc(Cl)c(Cl)c1
6 | 149 to 151 | CC(C)[C@@H](CNC(=O)/C=C/c1ccccc1)NC(=O)OC(C)(C)C
7 | 231 | CCOC(=O)c1c(N2CCN(C(=O)c3cccs3)CC2)c2cnccc2[nH]c1=O
8 | 99 to 101 | Cc1nn(-c2cc(Oc3ccc([N+](=O)[O-])cc3)c(Cl)cc2Cl)c(=O)n1C(F)F
9 | 118 to 120 | OCC(O)CN1CCN(c2ncccn2)CC1 (centres undefined)
10 | > 300 | O=C(c1ccccc1)c1c(O)c2c(C(=O)O)cccc2[nH]c1=O
11 | 239 to 240 | CC1Cc2cc(O)ccc2C2C(F)CC3(C)CC(O)CC3C12 (centres undefined)
12 | 104 to 105 | O=C(CCl)NCC1(c2ccc(Cl)c(Cl)c2)CCC1
13 | 44 to 46 | COc1cc(C(C)=O)ccc1OCCCN1CCC(C(O)(c2ccc(F)cc2)c2ccc(F)cc2)C1 (centres undefined)
14 | 116 | COc1ccc(N=C(Cl)c2ccc(OC)cc2)cc1
15 | 138 to 140 | CCCCCCCCCCCCn1nnc(NC(=O)CS(=O)(=O)Nc2c(C(C)C)cccc2C(C)C)n1
16 | 246 to 248 | Cc1nc2c(c3c1[nH]c1ccccc13)C(=O)CC(c1ccccc1)C2 (centres undefined)
17 | 69 to 70 | Cc1cccc2c1NC(C(Cl)(Cl)Cl)OC2 (centres undefined)
18 | 194 to 195 | CC(=O)Oc1ccc2c(c1)COc1cc3cc(OC(C)=O)ccc3cc1-2
19 | 167 | CCOC(=O)c1cnn(C)c1C(=O)Nc1ccn2nc(N(C)CC)nc2c1
20 | 190 to 192 | O=c1[nH]c(-c2cccnc2O)nc2ccccc12
21 | 285 to 286 | CC1=C(Nc2ccc(C3=NNC(=O)CC3C)cc2)CCC1=O (centres undefined)
22 | 233 to 234 | NNC(=O)c1ccnc2[nH]c(CCc3ccccc3)cc12
23 | 108 to 109 | O=C(c1ccccc1)C(O)c1ccc(F)cc1 (centres undefined)
24 | 180 | CCOc1ccc2c(c1)C(C)(c1ccccc1O)C(=O)N2S(=O)(=O)c1ccc(C(=O)NC(C)(C)C)cc1 (centres undefined)
25 | 189 to 190 | Nc1cc(Br)c(Br)cc1N

Row | melting point [°C] | SMILES
26 | 210 to 212 | O=C(O)c1cc(S(=O)(=O)c2ccccc2)ccc1[N+](=O)[O-]
27 | 82 | COc1cc(OC)nc(Oc2cccc(O)c2C=O)n1
28 | 300 | N=C(NO)c1ccc(N)nc1
29 | 120 to 122 | CCC1(O)OC(=O)c2ccc(Oc3ccc(C(F)(F)F)cc3Cl)cc21 (centres undefined)
30 | 133 to 135 | CN(C)CCOc1ccc2c(c1)C(c1ccccc1)CC(=O)N2 (centres undefined)
31 | 199 to 200 | COC(=O)C(NS(=O)(=O)c1ccc(-c2ccc(NC(=O)c3oc4cccc(C)c4c3C)cc2)cc1)C(C)C (centres undefined)
32 | 122 to 124 | CCOCc1nc2c(N)nc(C)c(C)c2n1CCOCC#Cc1cncnc1
33 | 134 to 136 | CC(C)(C)OC(=O)Nc1ccc(C#Cc2ccc(F)cc2F)cc1[N+](=O)[O-]
34 | 108 to 109 | C=CS(=O)CCNC(=O)CCS(=O)(=O)CCCl (centres undefined)
35 | 108 to 110 | COc1ccc(C=CC(=O)c2c(OC)cc(OC)cc2OC2OC(COC(C)=O)C(OC(C)=O)C(OC(C)=O)C2NC(C)=O)cc1 (centres undefined)
36 | 144 to 146 | CC(C(=O)O)c1cccc(OCCC(=O)O)c1 (centres undefined)
37 | 184 to 186 | Cc1cc(C)cc(NC(=O)Cc2ccc(OC3(C(=O)O)CCCC3C)cc2)c1 (centres undefined)
38 | > 300 | CC(=O)Nc1ccc(-c2cc3[nH]c(=O)[nH]c3nc2C)cc1
39 | 155 | COc1cc(Nc2nccc(-c3cccnc3)n2)cc(OC)c1OC
40 | 100 to 108 | CCOC(=O)N(c1cccc(C(F)(F)F)c1)c1ccccc1-n1nc(C(=O)O)nc1CCl
41 | 105 | CCCCC(=O)OCC1OC(n2cnc3c(OC)nc(N)nc32)C(O)C1O (centres undefined)
42 | 248 to 251 | CCCOc1ccc(C#N)cc1-c1ccc(C#N)c(=O)[nH]1
43 | 53 to 55 | CCCc1c(OCC2CO2)ccc(C(C)=O)c1O (centres undefined)
44 | 170 to 173 | COC(=O)c1c(O)c2cc(Cl)ccc2n1-c1ccccc1
45 | 135 to 136 | Cc1cccc(Cl)c1N1CCCN(C(C)C)C1=S
46 | 85 to 86 | NC(=NO)c1ccccc1N
47 | 227 | CC(=O)N[C@@H]1CCCC[C@H]1Nc1nc(Nc2ccc3c(c2)C(C)(C)CCC(=O)N3)ncc1Cl
48 | 117 to 118 | COc1cc(CO)ccc1OCc1nc(-c2cccnc2)oc1C
49 | 166 to 168 | O=C(O)CNC(=O)C=C(c1ccc(Cl)cc1)c1ccc(Cl)cc1
50 | 168 | O=S(=O)(N[C@H]1CC[C@H](CCN2CCN(c3nccc4c3CCO4)CC2)CC1)c1ccccc1

Row | melting point [°C] | SMILES
51 | 251 to 253 | N=C(NN)c1ccccc1C(=N)NN
52 | 182 to 184 | CC(=O)NC[C@H]1CN(c2ccc(N3CCC4(CCOCCO4)CC3)c(F)c2)C(=O)O1
53 | 103 to 105 | O=c1c(Cc2ccccc2)c2n(c(=O)n1CCCCCl)CCCS2(=O)=O
54 | 56 to 58 | O[C@@H](CNCc1ccccc1)C1CCCCC1
55 | 138 | O=c1[nH]c(-c2ccc(F)cc2)c(CCCl)s1
56 | 117 | CCCCCCCCCCCCNC(=O)N(C)C[C@H](O)[C@@H](O)[C@H](O)[C@H](O)CO
57 | 125 to 127 | COC(=O)c1ccc([C@H](C)NC(C)=O)cc1
58 | 180 | C=CCN(CC=C)c1nc(NC2CC(C)(C)NC(C)(C)C2)nc(NC(C)(C)CC(C)(C)C)n1
59 | 80 to 81 | COc1ccc2oc(-c3nc(C(C)(C)C)cs3)cc2c1
60 | 124 to 126 | O=C1C2CCCC2=Nc2ccccc2N1Cc1cccc([N+](=O)[O-])c1 (centres undefined)
61 | 153 to 155 | N#CNC(=N)NC1CCCc2ccccc21 (centres undefined)
62 | 144 to 145 | COc1ccc(-c2nc(SC(F)(F)CF)[nH]c2-c2ccc(OC)cc2)cc1
63 | 260 to 263 | CN1CCN(c2ccnc3sc(C(N)=O)c(N)c23)CC1
64 | 114 | CNCc1ccc2oc(-c3ccccc3C#N)c(Br)c2c1
65 | 225 to 226 | CC(=O)Nc1nc(CCc2ccc(CON3C(=O)c4ccccc4C3=O)cc2)cs1
66 | 123 to 124 | CCN1CCN(C(=O)c2ccc(N)cc2Cl)CC1
67 | 133 to 135 | CC(=O)Oc1cc2occ(C=O)c(=O)c2cc1OC(C)=O
68 | > 250 | CS(=O)(=O)Nc1cc2occ(NC(N)=O)c(=O)c2cc1Oc1ccccc1
69 | 116 to 118 | COc1ccc2c(c1)C(=O)CCC21CCC(=O)N(C)C1=O (centres undefined)
70 | 114 to 121 | Cc1c(-c2ccc(O)cc2)n(Cc2ccc(OCCN3C(C)CCCC3C)cc2)c2ccc(O)cc12 (centres undefined)
71 | 119 to 120 | COc1cc(-c2cc(=O)c3ccc(OCC(O)CNC(C)(C)C)cc3o2)cc(OC)c1OC (centres undefined)
72 | 120 | COc1ccc(CN(C)CC(=O)Nc2ccc([N+](=O)[O-])cc2)cc1OC
73 | 82 to 84 | COC(=O)C1=C(CF)NC(C)=C(C(=O)OC(C)C)C1c1c(F)cccc1C(F)(F)F (centres undefined)
74 | 172 to 173 | CC(C)(C)C(=O)Nc1ccc(F)cc1C1(O)CCN(C/C=C/c2ccc(Cl)cc2)CC1
75 | 153 to 156 | CCc1nn(C2CN(C(C)C)C2)c(C(N)=O)c1[N+](=O)[O-]

Row | melting point [°C] | SMILES
76 | 330 to 335 | Cc1cc2c(cc1S(N)(=O)=O)S(=O)(=O)NC(c1cccnn1)=N2
77 | 104 to 105 | CCOP(=O)(CNC(C)(c1ccccc1)c1cc(C(C)(C)C)c(O)c(C(C)(C)C)c1)OCC (centres undefined)
78 | 221 to 223 | Cc1oc(-c2ccccc2)nc1CCOc1ccc(C[C@H](NC(=O)C=Cc2ccc(F)cc2F)C(=O)O)cc1Br
79 | 123 to 124 | C(=Nc1ccc(-c2c[nH]cn2)cc1)Nc1ccccc1
80 | 186 to 188 | COc1ccc2c(c1OCc1ccccc1)CC(C(=O)O)N(C(=O)C(c1ccc(Cl)cc1)c1ccc(Cl)cc1)C2 (racemic)
81 | 164 to 166 | Cc1nc(-n2cnn(Cc3ccc(F)cc3)c2=O)sc1CO
82 | 75 to 77 | COP(=O)(OC)C(C)(C)O
83 | 294 to 297 | Fc1ccc2nc[nH]c(=S)c2c1
84 | 201 to 203 | COC(=O)c1nn(C2CCCCO2)cc1NC(=O)c1cc(Cl)ccn1 (centres undefined)
85 | 128 to 130 | COc1ccccc1N1CCN(C(=O)N(C)c2nc3ccccc3nc2OC)CC1
86 | 162 to 164 | O=C1c2cccc(O)c2CC12CCCCC2
87 | 43 to 45 | COC(=O)c1ccc2c(c1)OCCO2
88 | 104 to 105 | COc1cc(OC)c2c(c1)OC(C)(C)CC2=O
89 | 56 to 57 | COC(=O)c1cccc(=O)n1C
90 | 83 to 85 | Cn1nc(-c2ccccc2)nc1-c1ccccc1CBr
91 | 144 to 145 | Cc1c(C(=O)NC(C)(C)CO)cccc1[N+](=O)[O-]
92 | 137 to 138 | CCOC(=O)Cn1c(=O)c2cc(Cl)ccc2n(Cc2ccc(Cl)cc2)c1=O
93 | 200 to 202 | Cn1ncc(NCCCN2CCC(c3noc4cc(F)ccc34)CC2)c(Cl)c1=O
94 | 216 to 218 | NC(=O)c1cc(-n2cncn2)ccc1N
95 | 70 to 75 | COc1ccc(C=CC(=O)CCCCc2ccccc2)cc1O
96 | > 250 | N#Cc1ccc2[nH]c3c(ccc4c(C=O)c[nH]c43)c2c1
97 | 178 to 180 | Cn1cc(C(=O)Nc2cnccc2-c2ccc(Cl)cc2)c(C(F)(F)F)c1
98 | 110 to 111 | Cc1ccc(-c2cc(Cl)c3ccc(C)cc3n2)cc1
99 | > 320 | CCNC(=O)Nc1ccc2[nH]cc(C(=O)O)c(=O)c2c1
100 | 118 | CC(C)[C@H](O)[C@@H](CCCCOc1ccc(Cl)cc1Cl)n1nc[nH]c1=S (racemic)

Row | SMILES | melting point [°C]
101 | CCCCCCc1cc2c(s1)NC(=O)CN=C2c1ccccc1C | 162 to 163
102 | Cc1c(N2C(=O)C[C@](C)(O)[C@@H]2C)ccc(C#N)c1F | 138 to 141
103 | CN1C(=O)C2(CCN(CC(O)C3COc4ccccc4O3)CC2)c2ccccc21 (centres undefined) | 113 to 128
104 | C[C@@H]1N=C(c2ccccc2Cl)c2c(ccc(N)c2Br)N(C)C1=O | 243
